In data set [1] the test system is Echinochloa oryzoides (Ard.) Fritsch. The data set can be described thus: Preemergence weed control under flooded paddy conditions, ECHORC (Watergrass (Calif.)). In kind it is in vivo. As to conditions: preemergence, flooded paddy, rated three to four weeks after treatment.
For another data set, the system named is Cyperus iria. Nature of the data set: Preemergence weed control under flooded paddy conditions, CYPIR (Rice Flatsedge). Type of data set: in vivo. Conditions: preemergence, flooded paddy, rated three to four weeks after treatment.
Data set [2] deals with Cyperus serotinus, Rottb. Nature of the data set: Preemergence weed control under flooded paddy conditions, CYPSE (Flatsedge). Type of data set: in vivo. As to conditions: preemergence, rated three to four weeks after treatment.
Data set [3] deals with Monochoria vaginalis, Presl. Nature of the data set: Preemergence weed control under flooded paddy conditions, MOOVA (Monochoria). Conditions: preemergence, flooded paddy, rated three to four weeks after treatment. In kind it is in vivo.
The next data set has as its system Sagittaria pygmaea, L. The data set can be described thus: Preemergence weed control under flooded paddy conditions, SAGPY (Arrowhead (Pygmaea)). As to conditions: preemergence, flooded paddy, rated three to four weeks after treatment. Type of data set: in vivo.
Data set [4] deals with Oryza sativa, (L.) Tebonnet. Nature of the data set: Rice tolerance to post-transplant applications under flooded paddy conditions (Example 187), ORYSAT (Rice, Tebonnet). Conditions: rated three to four weeks after treatment.

As for `Cn1c(C(F)(F)F)cc(=O)n(-c2ccc3snc(C(Br)C#N)c3c2)c1=O` (stereo not drawn) [Example 264, 1,2-Benzisothiazole-3-acetonitrile, alpha-bromo-5-[3,6-dihydro-3-methyl-2,6-dioxo-4-(trifluoromethyl)-1(2H)-pyrimidinyl]-], the “ECHORC herbicidal effect rating” value in data set [1] (Rate 0.0320 kg/ha) is listed as 0.0; in data set [1] (Rate 0.0620 kg/ha) it was 0.0; in data set [1] (Rate 0.1250 kg/ha) it was 0.0; in data set [1] (Rate 0.2500 kg/ha), 2.0. The “CYPIR herbicidal effect rating” value in the data set on Cyperus iria (Rate 0.0320 kg/ha), in the data set on Cyperus iria (Rate 0.0620 kg/ha), with Cyperus iria (Rate 0.1250 kg/ha) and with Cyperus iria (Rate 0.2500 kg/ha) was 5.0 in each case. Moreover, the “CYPSE herbicidal effect rating” value in data set [2] (Rate 0.0320 kg/ha) turned out to be 4.0; in data set [2] (Rate 0.0620 kg/ha) it was 4.0; in data set [2] (Rate 0.1250 kg/ha), 9.0; in data set [2] (Rate 0.2500 kg/ha) it was 9.0. Also, the “MOOVA herbicidal effect rating” value in data set [3] (Rate 0.0320 kg/ha), in data set [3] (Rate 0.0620 kg/ha), in data set [3] (Rate 0.1250 kg/ha) and in data set [3] (Rate 0.2500 kg/ha) was 9.0 throughout. Besides, the “SAGPY herbicidal effect rating” value is recorded as 0.0 with Sagittaria pygmaea, L. (Rate 0.0320 kg/ha); 0.0 in the data set on Sagittaria pygmaea, L. (Rate 0.0620 kg/ha); 0.0 with Sagittaria pygmaea, L. (Rate 0.1250 kg/ha); 0.0 with Sagittaria pygmaea, L. (Rate 0.2500 kg/ha). Besides, the “ORYSAT herbicidal effect rating” value in data set [4] (Rate 0.0320 kg/ha) was 0.0; in data set [4] (Rate 0.0620 kg/ha), 0.0; in data set [4] (Rate 0.1250 kg/ha), 0.0; in data set [4] (Rate 0.2500 kg/ha), 5.0.
Regarding `Cc1ccc(OCC(=O)OC(C)(C)C)c(-c2noc3ccc(-n4c(=O)cc(C(F)(F)F)n(C)c4=O)c(Cl)c23)c1` [Example 265, Acetic acid, {{2-{4-chloro-5-[3,6-dihydro-3-methyl-2,6-dioxo-4-(trifluoromethyl)-1(2H)-pyrimidinyl]-1,2-benzisoxazol-3-yl}-p-tolyl}oxy}-, tert-butyl ester], the “ECHORC herbicidal effect rating” value in data set [1] (Rate 0.0320 kg/ha), in data set [1] (Rate 0.0620 kg/ha), in data set [1] (Rate 0.1250 kg/ha) and in data set [1] (Rate 0.2500 kg/ha) was 0.0 throughout. Besides, the “CYPIR herbicidal effect rating” value is 0.0 in the data set on Cyperus iria (Rate 0.0320 kg/ha), 0.0 in the data set with Cyperus iria (Rate 0.0620 kg/ha), 0.0 with Cyperus iria (Rate 0.1250 kg/ha) and 3.0 in the data set on Cyperus iria (Rate 0.2500 kg/ha). Moreover, the “CYPSE herbicidal effect rating” value in data set [2] (Rate 0.0320 kg/ha), in data set [2] (Rate 0.0620 kg/ha), in data set [2] (Rate 0.1250 kg/ha) and in data set [2] (Rate 0.2500 kg/ha) was 0.0 in each case. Moreover, the “MOOVA herbicidal effect rating” value in data set [3] (Rate 0.0320 kg/ha), in data set [3] (Rate 0.0620 kg/ha), in data set [3] (Rate 0.1250 kg/ha) and in data set [3] (Rate 0.2500 kg/ha) was 9.0 in each case. For the same compound, the “SAGPY herbicidal effect rating” value in the data set with Sagittaria pygmaea, L. (Rate 0.0320 kg/ha) is reported as 0.0; in the data set on Sagittaria pygmaea, L. (Rate 0.0620 kg/ha) it was 0.0; with Sagittaria pygmaea, L. (Rate 0.1250 kg/ha), 0.0; with Sagittaria pygmaea, L. (Rate 0.2500 kg/ha) it was 0.0. Besides, the “ORYSAT herbicidal effect rating” value in data set [4] (Rate 0.0320 kg/ha), in data set [4] (Rate 0.0620 kg/ha), in data set [4] (Rate 0.1250 kg/ha) and in data set [4] (Rate 0.2500 kg/ha) was 0.0 throughout.
For `Cn1c(C(F)(F)F)cc(=O)n(-c2ccc3snc(-c4ccccc4OCC(=O)NS(C)(=O)=O)c3c2)c1=O` [Example 268, Acetamide, 2-{o-{5-[3,6-dihydro-3-methyl-2,6-dioxo-4-(trifluoromethyl)-1(2H)-pyrimidinyl]-1,2-benzisothiazol-3-yl}phenoxy}-N-(methylsulfonyl)-], the “ECHORC herbicidal effect rating” value in data set [1] (Rate 0.0320 kg/ha) was determined as 1.0; in data set [1] (Rate 0.0620 kg/ha) it was 3.0; in data set [1] (Rate 0.1250 kg/ha), 4.5; in data set [1] (Rate 0.2500 kg/ha) it was 4.5. Besides, the “CYPIR herbicidal effect rating” value in the data set on Cyperus iria (Rate 0.0320 kg/ha) is 1.0; with Cyperus iria (Rate 0.0620 kg/ha) it was 3.0; in the data set on Cyperus iria (Rate 0.1250 kg/ha), 6.0; in the data set on Cyperus iria (Rate 0.2500 kg/ha), 7.5. The “CYPSE herbicidal effect rating” value turned out to be 1.0 in data set [2] (Rate 0.0320 kg/ha), 5.5 in data set [2] (Rate 0.0620 kg/ha), 9.0 in data set [2] (Rate 0.1250 kg/ha) and 9.0 in data set [2] (Rate 0.2500 kg/ha). Moreover, the “MOOVA herbicidal effect rating” value is listed as 7.5 in data set [3] (Rate 0.0320 kg/ha), 9.0 in data set [3] (Rate 0.0620 kg/ha), 9.0 in data set [3] (Rate 0.1250 kg/ha) and 9.0 in data set [3] (Rate 0.2500 kg/ha). In addition, the “SAGPY herbicidal effect rating” value in the data set with Sagittaria pygmaea, L. (Rate 0.0320 kg/ha) is reported as 0.0; in the data set on Sagittaria pygmaea, L. (Rate 0.0620 kg/ha) it was 1.0; in the data set on Sagittaria pygmaea, L. (Rate 0.1250 kg/ha) it was 1.0; in the data set with Sagittaria pygmaea, L. (Rate 0.2500 kg/ha), 4.0. In addition, the “ORYSAT herbicidal effect rating” value in data set [4] (Rate 0.0320 kg/ha) was found to be 3.5; in data set [4] (Rate 0.0620 kg/ha) it was 4.0; in data set [4] (Rate 0.1250 kg/ha), 5.0; in data set [4] (Rate 0.2500 kg/ha), 7.5.
On to `CC(=O)Nc1nnc(S(=O)(=O)NC(=O)COc2ccc(C)cc2-c2nsc3ccc(-n4c(=O)cc(C(F)(F)F)n(C)c4=O)cc23)s1` [Example 269, Acetamide, N-[(5-acetamido-1,3,4-thiadiazol-2-yl)sulfonyl]-2-{{2-{5-[3,6-dihydro-3-methyl-2,6-dioxo-4-(trifluoromethyl)-1(2H)-pyrimidinyl]-1,2-benzisothiazol-3-yl}-p-tolyl}oxy}-], for which the “ECHORC herbicidal effect rating” value is recorded as 0.0 in data set [1] (Rate 0.2500 kg/ha) and 4.0 in data set [1] (Rate 0.5000 kg/ha). In addition, the “CYPIR herbicidal effect rating” value in the data set with Cyperus iria (Rate 0.2500 kg/ha) and with Cyperus iria (Rate 0.5000 kg/ha) was 0.0 throughout. The “CYPSE herbicidal effect rating” value in data set [2] (Rate 0.2500 kg/ha) and in data set [2] (Rate 0.5000 kg/ha) was 0.0 throughout. Further, the “MOOVA herbicidal effect rating” value in data set [3] (Rate 0.2500 kg/ha) was 0.0; in data set [3] (Rate 0.5000 kg/ha), 9.0. Moreover, the “SAGPY herbicidal effect rating” value in the data set with Sagittaria pygmaea, L. (Rate 0.2500 kg/ha) stood at 0.0; in the data set with Sagittaria pygmaea, L. (Rate 0.5000 kg/ha), 0.0. The “ORYSAT herbicidal effect rating” value in data set [4] (Rate 0.2500 kg/ha) and in data set [4] (Rate 0.5000 kg/ha) was 0.0 in each case.
In the case of `Cc1ccc(OCC(=O)NS(=O)(=O)c2c(C)noc2C)c(-c2nsc3ccc(-n4c(=O)cc(C(F)(F)F)n(C)c4=O)cc23)c1` [Example 270, Acetamide, 2-{{2-{5-[3,6-dihydro-3-methyl-2,6-dioxo-4-(trifluoromethyl)-1(2H)-pyrimidinyl]-1,2-benzisothiazol-3-yl}-p-tolyl}oxy}-N-[(3,5-dimethylisoxazol-4-yl)sulfonyl]-], the “ECHORC herbicidal effect rating” value in data set [1] (Rate 0.0320 kg/ha) is listed as 1.3; in data set [1] (Rate 0.0620 kg/ha) it was 2.7; in data set [1] (Rate 0.1250 kg/ha) it was 4.3; in data set [1] (Rate 0.2500 kg/ha), 9.0; in data set [1] (Rate 0.5000 kg/ha), 9.0. Further, the “CYPIR herbicidal effect rating” value in the data set with Cyperus iria (Rate 0.0320 kg/ha) is reported as 8.0; in the data set on Cyperus iria (Rate 0.0620 kg/ha) it was 9.0; in the data set with Cyperus iria (Rate 0.1250 kg/ha), 9.0; in the data set with Cyperus iria (Rate 0.2500 kg/ha), 9.0; in the data set on Cyperus iria (Rate 0.5000 kg/ha), 9.0. Also, the “CYPSE herbicidal effect rating” value turned out to be 0.0 in data set [2] (Rate 0.0320 kg/ha); 0.0 in data set [2] (Rate 0.0620 kg/ha); 7.0 in data set [2] (Rate 0.1250 kg/ha); 9.0 in data set [2] (Rate 0.2500 kg/ha); 3.0 in data set [2] (Rate 0.5000 kg/ha). Moreover, the “MOOVA herbicidal effect rating” value in data set [3] (Rate 0.0320 kg/ha), in data set [3] (Rate 0.0620 kg/ha), in data set [3] (Rate 0.1250 kg/ha), in data set [3] (Rate 0.2500 kg/ha) and in data set [3] (Rate 0.5000 kg/ha) was 9.0 each time. The “SAGPY herbicidal effect rating” value with Sagittaria pygmaea, L. (Rate 0.0320 kg/ha) is recorded as 0.0; with Sagittaria pygmaea, L. (Rate 0.0620 kg/ha), 0.0; in the data set with Sagittaria pygmaea, L. (Rate 0.1250 kg/ha), 0.0; in the data set on Sagittaria pygmaea, L. (Rate 0.2500 kg/ha), 0.0; in the data set on Sagittaria pygmaea, L. (Rate 0.5000 kg/ha), 5.0. The “ORYSAT herbicidal effect rating” value in data set [4] (Rate 0.0320 kg/ha) is listed as 4.0; in data set [4] (Rate 0.0620 kg/ha), 4.0; in data set [4] (Rate 0.1250 kg/ha) it was 7.0; in data set [4] (Rate 0.2500 kg/ha), 8.0; in data set [4] (Rate 0.5000 kg/ha), 2.0.
Regarding `Cc1nsc2ccc(-n3c(=O)c(Cl)c(C(F)(F)F)n(C)c3=O)cc12` [Example 271, 2,4(1H,3H)-Pyrimidinedione, 5-chloro-1-methyl-3-(3-methyl-1,2-benzisothiazol-5-yl)-6-(trifluoromethyl)-], the “ECHORC herbicidal effect rating” value in data set [1] (Rate 0.0620 kg/ha), in data set [1] (Rate 0.1250 kg/ha), in data set [1] (Rate 0.2500 kg/ha) and in data set [1] (Rate 0.5000 kg/ha) was 0.0 in each case. Further, the “CYPIR herbicidal effect rating” value in the data set with Cyperus iria (Rate 0.0620 kg/ha), in the data set on Cyperus iria (Rate 0.1250 kg/ha), in the data set on Cyperus iria (Rate 0.2500 kg/ha) and in the data set on Cyperus iria (Rate 0.5000 kg/ha) was 0.0 in each case. The “CYPSE herbicidal effect rating” value in data set [2] (Rate 0.0620 kg/ha), in data set [2] (Rate 0.1250 kg/ha), in data set [2] (Rate 0.2500 kg/ha) and in data set [2] (Rate 0.5000 kg/ha) was 0.0 each time. Moreover, the “MOOVA herbicidal effect rating” value in data set [3] (Rate 0.0620 kg/ha) is 0.0; in data set [3] (Rate 0.1250 kg/ha), 4.0; in data set [3] (Rate 0.2500 kg/ha), 9.0; in data set [3] (Rate 0.5000 kg/ha) it was 9.0. Further, the “SAGPY herbicidal effect rating” value in the data set with Sagittaria pygmaea, L. (Rate 0.0620 kg/ha) was 0.0; with Sagittaria pygmaea, L. (Rate 0.1250 kg/ha), 0.0; in the data set with Sagittaria pygmaea, L. (Rate 0.2500 kg/ha), 0.0; in the data set with Sagittaria pygmaea, L. (Rate 0.5000 kg/ha), 0.0. Further, the “ORYSAT herbicidal effect rating” value is reported as 1.0 in data set [4] (Rate 0.0620 kg/ha), 2.0 in data set [4] (Rate 0.1250 kg/ha), 3.0 in data set [4] (Rate 0.2500 kg/ha) and 0.0 in data set [4] (Rate 0.5000 kg/ha).
